Columns and labels:
Type in all cases: in vivo
[1] = system: cerebral AMPc; test: Stimulation of the synthesis of cerebral AMPc; settings: mice OF1/IFFA-Credo, 10 mg/kg intraperitoneally, five minutes after injection
Experimental: The compounds to be tested are administered intraperitoneally at a dose of 10 mg/kg to mice of strain OF1 /IFFA-Credo.
Five minutes after injection, the animals are sacrificed by freezing and the AMPc present in the cerebral structures is measured by radio immunology according to the Amersham method (specific binding protein).

[2] = system: rats; test: Increase in the latency of the onset of sleep induced by Pentobarbital; settings: 10 mg/kg i.p. before pentobarbital 40 mg/kg i.p.
Experimental: Pentobarbital, injected in rats at a dose of 40 mg/kg i.p., induces the onset of sleep.

[3] = system: mice; test: Potentialisation of the toxicity of Yohimbine; settings: Yohimbine alone 35 mg/kg i.p.
Experimental: Yohimbine, injected to mice at a dose of 35 mg/kg i.p. causes the death of 10% to 30% treated animals. The compounds of the invention administered at a dose of 10 mg/kg i.p. 15 minutes before the injection of Yohimbine increase the rate of mortality (+80% with compounds of examples 5 and 7).

Compound | increase of the intracerebral content of AMPc [1] [%] | effect on the onset of sleep induced by pentobarbital (in words) [2] | death of treated animals [3]
NC(=O)[C@@H]1CCCN1C(=O)[C@H](Cc1c[nH]cn1)NC(=O)[C@@H]1CCC(=O)N1 [TRH, pyroglutamylhistidyl-prolinamide] | 46 | inactive | 
COC(=O)[C@@H]1[C@H]2C[C@H]3c4[nH]c5ccccc5c4CCN3C[C@@H]2CC[C@@H]1O [Yohimbine] |  |  | 10% to 30

— US4725581A, “New peptide compounds having a lactone or cycloamide structure” (ADIR et Compagnie, priority 1985, dated 1988)
